Literature values as cited in patent US20060233724A1, “Medicinal composition for peridontal pocket administration containing bisphosphonic acid derivative or its salt as the active ingredient” (Toray Industries, Inc., priority 2002, published 2006).
Read-outs that look alike come from different tables or passages of the source.

Key:
[1] = test system: involution of alveolar bone; details: hamster periodontal disease models
[2] = test system: involution of alveolar bone, attachment level; details: canine periodontal disease models, subcutaneous or oral administration
[3] = test system: destruction of alveolar bone; details: simian periodontal disease model, oral administration
[4] = test system: destruction of alveolar bone; details: canine periodontal disease model, oral administration
[5] = test system: experimental movement of molars; details: rat

In the case of `O=P(O)(O)C(NC1CCCCCC1)P(=O)(O)O` [Incadronate disodium, 1-(cycloheptylamino) methylidene-1,1-bisphosphonic acid], the “involution of alveolar bone” value [1] is listed as “exhibits inhibiting action against involution of alveolar bone”, the attachment level [2] is listed as “action of improvement in attachment level” and the “involution of alveolar bone” value [2] is listed as “action against involution of alveolar bone”.

For `NCCCC(O)(P(=O)(O)O)P(=O)(O)O` [alendronate, 4-amino-1-hydroxybutylidene-1,1-bisphosphonic acid], the “destruction of alveolar bone” value [3] is listed as “inhibited destruction of alveolar bone” and the “destruction of alveolar bone” value [4] is listed as “inhibited destruction of alveolar bone”.

In the case of `NCCC(O)(P(=O)(O)O)P(=O)(O)O` [pamidronate], the “effect in experimental movement of molars” value ([5]; local submucosal administration to the palate) is given as “effective”.

For `O=P(O)(O)C(O)(Cc1cccnc1)P(=O)(O)O` [risedronate, 1-hydroxy-2-(3-pyridyl)ethylidene-1,1-bisphosphonic acid], the “effect in experimental movement of molars” value ([5]; local administration to the vicinity of first molar) is given as “effective”.
